Assay: Appearance of formulation (state at 25° C.)
Assay type: physicochemical
Method: Formulations 1 to 427 shown in Tables 1A to 1D were prepared by the above-described method using the components (A) and (B) at the compounding molar ratios shown in the tables, and their states at 25° C. were observed.

[1] = 25° C., components (A) and (B) at the compounding molar ratio shown
[2] = Tables 1C-1 to 1D, compounding molar ratio (Component (A):Component (B)) 1:1

Row | Compound | state at 25° C. [1] | state at 25° C. [2]
1 | CC(C)[C@H](N)C(=O)O.O=C(O)c1ccccc1 [Formulation 201] | Solid | 
2 | CC(C)[C@H](N)C(=O)O.O=C1O[C@H]([C@@H](O)CO)C(O)=C1O [Formulation 202] | Solid | 
3 | CC(C)[C@H](N)C(=O)O.O=C1O[C@H]([C@H](O)CO)C(O)=C1O [Formulation 203] | Solid | 
4 | CC(C)C[C@H](N)C(=O)O.O=CO [Formulation 204] | Solid | 
5 | CC(=O)O.CC(C)C[C@H](N)C(=O)O [Formulation 205] | Solid | 
6 | CC(C)C[C@H](N)C(=O)O.CCC(=O)O [Formulation 206] | Solid | 
7 | CC(C)C[C@H](N)C(=O)O.CCCCCC(=O)O [Formulation 207] | Solid | 
8 | CC(C)C[C@H](N)C(=O)O.CCCC(=O)O [Formulation 208] | Solid | 
9 | CC(C)C[C@H](N)C(=O)O.O=C(O)[C@H](O)[C@@H](O)[C@H](O)[C@H](O)CO [Formulation 209] | Solid | 
10 | CC(C)C[C@H](N)C(=O)O.CC(O)C(=O)O [Formulation 210] | Solid | 
11 | CC(C)C[C@H](N)C(=O)O.O=C(O)CCCCC(=O)O [Formulation 211] | Solid | 
12 | CC(C)C[C@H](N)C(=O)O.O=C(O)CCC(=O)O [Formulation 212] | Solid | 
13 | CC(C)C[C@H](N)C(=O)O.N[C@@H](CCC(=O)O)C(=O)O [Formulation 213] | Solid | 
14 | CC(C)C[C@H](N)C(=O)O.O=C(O)/C=C/C(=O)O [Formulation 214] | Solid | 
15 | CC(C)C[C@H](N)C(=O)O.O=C(O)C[C@H](O)C(=O)O [Formulation 215] | Solid | 
16 | CC(C)C[C@H](N)C(=O)O.O=C(O)CC(O)(CC(=O)O)C(=O)O [Formulation 216] | Solid | 
17 | CC(C)C[C@H](N)C(=O)O.O=C(O)C(O)C(O)C(=O)O (stereo not shown) [Formulation 217] | Solid | 
18 | CC(C)C[C@H](N)C(=O)O.O=C(O)c1ccccc1 [Formulation 218] | Solid | 
19 | CC(C)C[C@H](N)C(=O)O.O=C1O[C@H]([C@@H](O)CO)C(O)=C1O [Formulation 219] | Solid | 
20 | CC[C@H](C)[C@H](N)C(=O)O.O=CO [Formulation 221] | Solid | 
21 | CC(=O)O.CC[C@H](C)[C@H](N)C(=O)O [Formulation 222] | Solid | 
22 | CCC(=O)O.CC[C@H](C)[C@H](N)C(=O)O [Formulation 223] | Solid | 
23 | CCCCCC(=O)O.CC[C@H](C)[C@H](N)C(=O)O [Formulation 224] | Solid | 
24 | CCCC(=O)O.CC[C@H](C)[C@H](N)C(=O)O [Formulation 225] | Solid | 
25 | CC[C@H](C)[C@H](N)C(=O)O.O=C(O)[C@H](O)[C@@H](O)[C@H](O)[C@H](O)CO [Formulation 226] | Solid | 
26 | CC(O)C(=O)O.CC[C@H](C)[C@H](N)C(=O)O [Formulation 227] | Solid | 

Row | Compound | state at 25° C. [1] | state at 25° C. [2]
27 | CC[C@H](C)[C@H](N)C(=O)O.O=C(O)CCCCC(=O)O [Formulation 228] | Solid | 
28 | CC[C@H](C)[C@H](N)C(=O)O.O=C(O)CCC(=O)O [Formulation 229] | Solid | 
29 | CC[C@H](C)[C@H](N)C(=O)O.N[C@@H](CCC(=O)O)C(=O)O [Formulation 230] | Solid | 
30 | CC[C@H](C)[C@H](N)C(=O)O.O=C(O)/C=C/C(=O)O [Formulation 231] | Solid | 
31 | CC[C@H](C)[C@H](N)C(=O)O.O=C(O)C[C@H](O)C(=O)O [Formulation 232] | Solid | 
32 | CC[C@H](C)[C@H](N)C(=O)O.O=C(O)CC(O)(CC(=O)O)C(=O)O [Formulation 233] | Solid | 
33 | CC[C@H](C)[C@H](N)C(=O)O.O=C(O)C(O)C(O)C(=O)O (stereo not shown) [Formulation 234] | Solid | 
34 | CC[C@H](C)[C@H](N)C(=O)O.O=C(O)c1ccccc1 [Formulation 235] | Solid | 
35 | CC[C@H](C)[C@H](N)C(=O)O.O=C1O[C@H]([C@@H](O)CO)C(O)=C1O [Formulation 236] | Solid | 
36 | N[C@@H](CO)C(=O)O.O=CO [Formulation 238] | Solid | 
37 | CC(=O)O.N[C@@H](CO)C(=O)O [Formulation 239] | Solid | 
38 | CCC(=O)O.N[C@@H](CO)C(=O)O [Formulation 240] | Solid | 
39 | CCCCCC(=O)O.N[C@@H](CO)C(=O)O [Formulation 241] | Solid | 
40 | CCCC(=O)O.N[C@@H](CO)C(=O)O [Formulation 242] | Solid | 
41 | CC(O)C(=O)O.N[C@@H](CO)C(=O)O [Formulation 244] | Solid | 
42 | N[C@@H](CO)C(=O)O.O=C(O)CCCCC(=O)O [Formulation 245] | Solid | 
43 | N[C@@H](CO)C(=O)O.O=C(O)CCC(=O)O [Formulation 246] | Solid | 
44 | N[C@@H](CCC(=O)O)C(=O)O.N[C@@H](CO)C(=O)O [Formulation 247] | Solid | 
45 | N[C@@H](CO)C(=O)O.O=C(O)/C=C/C(=O)O [Formulation 248] | Solid | 
46 | N[C@@H](CO)C(=O)O.O=C(O)C(O)C(O)C(=O)O (stereo not shown) [Formulation 251] | Solid | 
47 | N[C@@H](CO)C(=O)O.O=C(O)c1ccccc1 [Formulation 252] | Solid | 
48 | N[C@@H](CO)C(=O)O.O=C1O[C@H]([C@@H](O)CO)C(O)=C1O [Formulation 253] | Solid | 
49 | N[C@@H](CO)C(=O)O.O=C1O[C@H]([C@H](O)CO)C(O)=C1O [Formulation 254] | Solid | 
50 | C[C@@H](O)[C@H](N)C(=O)O.O=CO [Formulation 255] | Solid | 
51 | CC(=O)O.C[C@@H](O)[C@H](N)C(=O)O [Formulation 256] | Solid | 
52 | CCC(=O)O.C[C@@H](O)[C@H](N)C(=O)O [Formulation 257] | Solid | 

Row | Compound | state at 25° C. [1] | state at 25° C. [2]
53 | CCCCCC(=O)O.C[C@@H](O)[C@H](N)C(=O)O [Formulation 258] | Solid | 
54 | CCCC(=O)O.C[C@@H](O)[C@H](N)C(=O)O [Formulation 259] | Solid | 
55 | C[C@@H](O)[C@H](N)C(=O)O.O=C(O)[C@H](O)[C@@H](O)[C@H](O)[C@H](O)CO [Formulation 260] | Solid | 
56 | CC(O)C(=O)O.C[C@@H](O)[C@H](N)C(=O)O [Formulation 261] | Solid | 
57 | C[C@@H](O)[C@H](N)C(=O)O.O=C(O)CCCCC(=O)O [Formulation 262] | Solid | 
58 | C[C@@H](O)[C@H](N)C(=O)O.O=C(O)CCC(=O)O [Formulation 263] | Solid | 
59 | C[C@@H](O)[C@H](N)C(=O)O.N[C@@H](CCC(=O)O)C(=O)O [Formulation 264] | Solid | 
60 | C[C@@H](O)[C@H](N)C(=O)O.O=C(O)/C=C/C(=O)O [Formulation 265] | Solid | 
61 | C[C@@H](O)[C@H](N)C(=O)O.O=C(O)C[C@H](O)C(=O)O [Formulation 266] | Solid | 
62 | C[C@@H](O)[C@H](N)C(=O)O.O=C(O)CC(O)(CC(=O)O)C(=O)O [Formulation 267] | Solid | 
63 | C[C@@H](O)[C@H](N)C(=O)O.O=C(O)C(O)C(O)C(=O)O (stereo not shown) [Formulation 268] | Solid | 
64 | C[C@@H](O)[C@H](N)C(=O)O.O=C(O)c1ccccc1 [Formulation 269] | Solid | 
65 | C[C@@H](O)[C@H](N)C(=O)O.O=C1O[C@H]([C@@H](O)CO)C(O)=C1O [Formulation 270] | Solid | 
66 | C[C@@H](O)[C@H](N)C(=O)O.O=C1O[C@H]([C@H](O)CO)C(O)=C1O [Formulation 271] | Solid | 
67 | N[C@@H](CS)C(=O)O.O=CO [Formulation 306] |  | Solid
68 | CC(=O)O.N[C@@H](CS)C(=O)O [Formulation 307] |  | Solid
69 | CCC(=O)O.N[C@@H](CS)C(=O)O [Formulation 308] |  | Solid
70 | CCCCCC(=O)O.N[C@@H](CS)C(=O)O [Formulation 309] |  | Solid
71 | CCCC(=O)O.N[C@@H](CS)C(=O)O [Formulation 310] |  | Solid
72 | N[C@@H](CS)C(=O)O.O=C(O)[C@H](O)[C@@H](O)[C@H](O)[C@H](O)CO [Formulation 311] |  | Solid
73 | CC(O)C(=O)O.N[C@@H](CS)C(=O)O [Formulation 312] |  | Solid
74 | N[C@@H](CS)C(=O)O.O=C(O)CCCCC(=O)O [Formulation 313] |  | Solid
75 | N[C@@H](CS)C(=O)O.O=C(O)CCC(=O)O [Formulation 314] |  | Solid
76 | N[C@@H](CCC(=O)O)C(=O)O.N[C@@H](CS)C(=O)O [Formulation 315] |  | Solid
